Test results taken from patent US20070104774A1, “Method for preparing phytosphingosine liposome composition” (priority 2003, published 2007).

Tests used:
[1] = cited from earlier work
[2] = Stability test of water lotion formulation of phytosphingosine liposome: size and sedimentation on storage at R.T. and low temperature; assay type: physicochemical; conditions: dissolved using an acid only such as lactic acid; as time went by and at low temperatures
Description: For a liposome solution containing 4 wt. % of phytosphingosine prepared according to Examples 3 and 7 and a solution in which the liposome solution was diluted so as to make a final concentration of phytosphingosine be 0.5% in a water lotion product, it was examined a stability of phytosphingosine liposome in water lotion formulation, based on sizes and sedimentation states as time went by and sizes and sedimentation states when storing at R.T. and a low temperature, respectively. Water lotion formulations used in the above test are as follows. The unit is wt. %. In water lotion formulations of liposome containing phytosphingosine, results of size variations as time went by are as follows. The unit is nm.

behaviour on storage [2]: recrystallized
SMILES: CCCCCCCCCCCCCC[C@@H](O)[C@@H](O)[C@@H](N)CO [phytosphingosine]
solubility in isocetyl alcohol ([1]; isocetyl alcohol solvent): 1 wt. %
solubility in water ([1]; water): never dissolved in water
